Patent publication US5892064A, “Chemiluminescent dialkyl-substituted 1,2-dioxetanes, methods of synthesis and use” (Lumigen, Inc., priority 1997, dated 1999)

How the values were obtained:
[1] = literature, cited from earlier work
[2] = Thermal stability of dioxetanes: first order decay of chemiluminescence of dilute solutions in xylene at several temperatures; type: physicochemical; conditions: for Ea: activation energy for thermal decomposition; for Ea / log A: dilute solutions in xylene; for t1/2: thermal decomposition (Table 4; temperature not given); for t1/2 25° C. / log A: thermal decomposition
Method: (§1) Chemiluminescence intensities and rate measurements were performed using either a Turner Designs (Sunnyvale, Calif.) model TD-20e luminometer or a luminometer built in house (Black Box) which uses a photon counting photomultiplier. Temperature control of samples analyzed in the luminometers was achieved by means of a circulating bath connected to the instrument. Quantitative measurement of light intensities on the Turner luminometer was extended beyond the 10^4 linear range of the detector by a neutral density filter. Data collection was controlled by an Apple MacIntosh SE/30 computer using the LUMISOFT data reduction program (Lumigen, Inc., Southfield, Mich.).
Activation energies for thermal decomposition of dioxetanes 2c, h and i were determined by measuring the first order rate constant k for decay of chemiluminescence of dilute solutions in xylene at several temperatures.

[3] = Fluoride-triggered (TBAF) chemiluminescent decomposition of dioxetanes in DMSO; type: physicochemical; conditions: for rates of fluoride-triggered decomposition compared / t1/2 trig.: 10 μL of 10^-6 M dioxetane with 50 μL of 1M TBAF in DMSO; for Rate acceleration: fluoride-triggered versus thermal decomposition; for t1/2: [F-] 1M, DMSO
Method: as §1
Stock solutions of dioxetanes 2c, 2e, 2g and for comparison, 4-(3-t-butyldimethylsilyloxyphenyl)-4-methoxyspiro [1,2-dioxetane-3,2'-tricyclo[3.3.1.1^3,7 ]decane] (2j), (preparation described in U.S. Pat. No. 4,962,192) were made to a concentration of 10^-6 M in DMSO. Serial dilutions in DMSO were made as required. Ten μL aliquots were triggered in 7×50 mm polypropylene tubes in a Turner Designs TD-20e luminometer by injection of 50 μL of a solution of tetra-n-butylammonium fluoride (TBAF) in DMSO (1M-10^-4 M) in the appropriate solvent, typically DMSO. Light intensity was attenuated when needed by a neutral density filter. All experiments were conducted at ambient temperature. Peak light intensity and decay rate diminished as the fluoride concentration was decreased. At the lowest concentration of fluoride, decay kinetics were not cleanly first order.
The half lives for decay were essentially independent of dioxetane concentration.
The rates of fluoride-triggered decomposition of dioxetanes 2c, h, i and j were compared in DMSO under identical conditions, i.e. 10 μL aliquot of a 10^-6 M solution of dioxetane with 50 μL of 1M TBAF in DMSO. […]

[4] = Thermal and hydrolytic stability of dioxetane in aqueous buffer solution; type: physicochemical; conditions: 0.33 mM, 1 mg/mL Enhancer A, 0.2M buffer pH 9.6, 37° C. versus room temperature, 5 days
Method: The thermal and hydrolytic stability of a 0.33 mM solution of dioxetane 2f containing 1 mg/mL of Enhancer A in 0.2M 2-amino-2-methyl-1-propanol buffer, pH 9.6 and 0.88 mM Mg^+2 was determined at 37° C. Solutions of the dioxetane were maintained at room temperature and 37° C. for 5 days. To each of 12 wells in a 96-well microplate was added 100 μL of each solution. The plate was incubated at 37° C. and chemiluminescence emission initiated by addition of 10 μL of solutions containing 1.1×10^-15 mol of AP. Light intensities were integrated for 2.5 hours. Stability of the dioxetane was assessed by comparing the average light yield of the sample incubated at 37° C. to the solution held at room temperature. A decrease in the amount of light emitted indicates decomposition of the dioxetane during the incubation period.

| Ea [2] [kcal/mol] | t1/2 25° C. [2] [yr] | log A [2] | Compound | half life (t1/2) at 25° C. ([1]; 25° C.) | activation energy for decomposition [1] [kcal/mol] | t1/2 [2] [yr] | rates of fluoride-triggered decomposition compared [3] | t1/2 trig. [3] [s] | Rate acceleration [3] | thermal and hydrolytic stability in aqueous solution [4] | t1/2 ([3]; [Dioxetane 2h] 10^-6 M) [s] | t1/2 ([3]; [Dioxetane 2h] 10^-7 M) [s] | t1/2 ([3]; [Dioxetane 2h] 10^-8 M) [s] | t1/2 ([3]; [Dioxetane 2h] 10^-9 M) [s] |
| --- | --- | --- | --- | --- | --- | --- | --- | --- | --- | --- | --- | --- | --- | --- |
|  |  |  | C1C2CC3CC1CC(C2)C31OOC12C1CC3CC(C1)CC2C3 (centres unmarked) | several years | 37 |  |  |  |  |  |  |  |  |  |
| 28.1 | 1.2 | 12.85 | COC1(c2cccc(OC(C)=O)c2)OOC1(C(C)C)C(C)C (centres unmarked) [Dioxetane 2c] |  |  | 1.2 | essentially the same rate | 7 | 5.5 × 10^6 |  |  |  |  |  |
|  |  |  | COC1(c2cccc(OP(=O)(O)O)c2)OOC1(C(C)C)C(C)C (centres unmarked) [Dioxetane 2f] |  |  |  |  |  |  | stable under these conditions |  |  |  |  |
| 28.5 | 1.1 | 13.2 | COC1(c2cccc(O)c2)OOC1(C1CCCCC1)C1CCCCC1 (centres unmarked) [Dioxetane 2i] |  |  | 1.1 | essentially the same rate | 6 | 5.7 × 10^6 |  |  |  |  |  |
|  |  |  | COC1(c2cccc(O[Si](C)(C)C(C)(C)C)c2)OOC12C1CC3CC(C1)CC2C3 (centres unmarked) [Dioxetane 2j] |  |  | 3.8 | essentially the same rate | 7 | 1.4 × 10^7 |  |  |  |  |  |

| Compound | Ea [2] [kcal/mol] | t1/2 25° C. [2] [yr] | log A [2] | half life (t1/2) at 25° C. ([1]; 25° C.) | activation energy for decomposition [1] [kcal/mol] | t1/2 [2] [yr] | rates of fluoride-triggered decomposition compared [3] | t1/2 trig. [3] [s] | Rate acceleration [3] | thermal and hydrolytic stability in aqueous solution [4] | t1/2 ([3]; [Dioxetane 2h] 10^-6 M) [s] | t1/2 ([3]; [Dioxetane 2h] 10^-7 M) [s] | t1/2 ([3]; [Dioxetane 2h] 10^-8 M) [s] | t1/2 ([3]; [Dioxetane 2h] 10^-9 M) [s] |
| --- | --- | --- | --- | --- | --- | --- | --- | --- | --- | --- | --- | --- | --- | --- |
| COC1(c2cccc(O[Si](C)(C)C(C)(C)C)c2)OOC1(C1CCCCC1)C1CCCCC1 (centres unmarked) [Dioxetane 2h] | 29.4 | 1.7 | 13.7 |  |  | 1.7 | essentially the same rate | 7 | 7.0 × 10^6 |  | 7.2 | 6.2 | 6.2 | 6.7 |
